Organism: Rattus norvegicus
Assay: DrugMatrix - Regimen: Daily Repeat
Format: toxicity, organism-based, Sprague-Dawley
Parameters: regimen Daily Repeat, gender Male, age 6-8 weeks
Conditions: in vivo, po, route oral GAVAGE, […]; for ABSOLUTE BASOPHIL / ABSOLUTE EOSINOPHIL / ABSOLUTE LYMPHOCYTE / ABSOLUTE MONOCYTE / ABSOLUTE SEGMENTED NEUTROPHIL / BASOPHIL / EOSINOPHIL / ERYTHROCYTE COUNT / HEMATOCRIT / HEMOGLOBIN / LEUKOCYTE COUNT / LYMPHOCYTE / MEAN CORPUSCULAR HEMOGLOBIN / MEAN CORPUSCULAR HEMOGLOBIN CONCENTRATION / MEAN CORPUSCULAR VOLUME / MONOCYTE / NEUTROPHIL / NUCLEATED RED BLOOD CELLS / PLATELET COUNT: tissue Blood; for ALANINE AMINOTRANSFERASE / ALBUMIN / ALKALINE PHOSPHATASE / ASPARTATE AMINOTRANSFERASE / BLOOD UREA NITROGEN / CARBON DIOXIDE / CHLORIDE / CHOLESTEROL / CREATINE PHOSPHOKINASE / CREATININE / GLUCOSE / LACTATE DEHYDROGENASE / LIPASE / PHOSPHORUS / POTASSIUM / SODIUM / TOTAL BILIRUBIN / TOTAL PROTEIN / URIC ACID: tissue Plasma
[1] = 0 mg/kg, 72 h, dose level Control, time 3 day
[2] = 0 mg/kg, 120 h, dose level Control, time 5 day
[3] = 3 mg/kg, 72 h, dose level Low, time 3 day

## CS(=O)(=O)c1ccc(C2=C(c3ccccc3)C(=O)OC2)cc1 [ROFECOXIB]
[1]
  ABSOLUTE BASOPHIL: 0 CELLS/uL
  ABSOLUTE EOSINOPHIL: 0 CELLS/uL
  ABSOLUTE LYMPHOCYTE: 6275.67 CELLS/uL
  ABSOLUTE MONOCYTE: 40.67 CELLS/uL
  ABSOLUTE SEGMENTED NEUTROPHIL: 633.67 CELLS/uL
  BASOPHIL: 0%
  EOSINOPHIL: 0%
  ERYTHROCYTE COUNT: 5.2 x10E6/uL
  HEMATOCRIT: 32.78%
  HEMOGLOBIN: 12.98 G/DL
  LEUKOCYTE COUNT: 6.95 x10E3/uL
  LYMPHOCYTE: 90.17%
  MEAN CORPUSCULAR HEMOGLOBIN: 24.97 pg
  MEAN CORPUSCULAR HEMOGLOBIN CONCENTRATION: 39.62 G/DL
  MEAN CORPUSCULAR VOLUME: 63.03 fL
  MONOCYTE: 0.67%
  NEUTROPHIL: 9.17%
  NUCLEATED RED BLOOD CELLS: 0 /100WBC
  PLATELET COUNT: 1082.83 x10E3/uL
  ALANINE AMINOTRANSFERASE: 69.67 u/L
  ALBUMIN: 4.15 G/DL
  ALKALINE PHOSPHATASE: 430.5 u/L
  ASPARTATE AMINOTRANSFERASE: 90.83 u/L
  BLOOD UREA NITROGEN: 13 mg/dL
  CARBON DIOXIDE: 33 mmol/L
  CHLORIDE: 99.17 MEQ/L
  CHOLESTEROL: 70.5 mg/dL
  CREATINE PHOSPHOKINASE: 253.33 u/L
  CREATININE: 0.13 mg/dL
  GLUCOSE: 157.17 mg/dL
  LACTATE DEHYDROGENASE: 85 u/L
  LIPASE: 10 u/L
  PHOSPHORUS: 10.2 mg/dL
  POTASSIUM: 5.78 MEQ/L
  SODIUM: 144.12 MEQ/L
  TOTAL BILIRUBIN: 0.2 mg/dL
  TOTAL PROTEIN: 5.8 G/DL
  URIC ACID: 0.8 mg/dL
[2]
  ABSOLUTE BASOPHIL: 0 CELLS/uL
  ABSOLUTE EOSINOPHIL: 0 CELLS/uL
  ABSOLUTE LYMPHOCYTE: 10431 CELLS/uL
  ABSOLUTE MONOCYTE: 90.5 CELLS/uL
  ABSOLUTE SEGMENTED NEUTROPHIL: 1111.83 CELLS/uL
  BASOPHIL: 0%
  EOSINOPHIL: 0%
  ERYTHROCYTE COUNT: 5.51 x10E6/uL
  HEMATOCRIT: 34.67%
  HEMOGLOBIN: 13.5 G/DL
  LEUKOCYTE COUNT: 11.63 x10E3/uL
  LYMPHOCYTE: 89.67%
  MEAN CORPUSCULAR HEMOGLOBIN: 24.5 pg
  MEAN CORPUSCULAR HEMOGLOBIN CONCENTRATION: 38.95 G/DL
  MEAN CORPUSCULAR VOLUME: 62.87 fL
  MONOCYTE: 0.67%
  NEUTROPHIL: 9.67%
  NUCLEATED RED BLOOD CELLS: 0 /100WBC
  PLATELET COUNT: 1052.67 x10E3/uL
  ALANINE AMINOTRANSFERASE: 54.67 u/L
  ALBUMIN: 4.15 G/DL
  ALKALINE PHOSPHATASE: 359.83 u/L
  ASPARTATE AMINOTRANSFERASE: 83 u/L
  BLOOD UREA NITROGEN: 13.5 mg/dL
  CARBON DIOXIDE: 27.17 mmol/L
  CHLORIDE: 98.5 MEQ/L
  CHOLESTEROL: 66.83 mg/dL
  CREATINE PHOSPHOKINASE: 256.17 u/L
  CREATININE: 0.19 mg/dL
  GLUCOSE: 171.33 mg/dL
  LACTATE DEHYDROGENASE: 91.5 u/L
  LIPASE: 10.5 u/L
  PHOSPHORUS: 8.72 mg/dL
  POTASSIUM: 5.34 MEQ/L
  SODIUM: 142.53 MEQ/L
  TOTAL BILIRUBIN: 0.2 mg/dL
  TOTAL PROTEIN: 6.05 G/DL
  URIC ACID: 0.6 mg/dL
[3]
  ABSOLUTE BASOPHIL: 0 CELLS/uL
  ABSOLUTE EOSINOPHIL: 85.33 CELLS/uL
  ABSOLUTE LYMPHOCYTE: 8896 CELLS/uL
  ABSOLUTE MONOCYTE: 157.33 CELLS/uL
  ABSOLUTE SEGMENTED NEUTROPHIL: 594.67 CELLS/uL
  BASOPHIL: 0%
  EOSINOPHIL: 0.67%
  ERYTHROCYTE COUNT: 4.87 x10E6/uL
  HEMATOCRIT: 31.33%
  HEMOGLOBIN: 12.37 G/DL
  LEUKOCYTE COUNT: 9.73 x10E3/uL
  LYMPHOCYTE: 92%
  MEAN CORPUSCULAR HEMOGLOBIN: 25.37 pg
  MEAN CORPUSCULAR HEMOGLOBIN CONCENTRATION: 39.47 G/DL
  MEAN CORPUSCULAR VOLUME: 64.27 fL
  MONOCYTE: 1.33%
  NEUTROPHIL: 6%
  NUCLEATED RED BLOOD CELLS: 0 /100WBC
  PLATELET COUNT: 1073 x10E3/uL
  ALANINE AMINOTRANSFERASE: 72.67 u/L
  ALBUMIN: 3.97 G/DL
  ALKALINE PHOSPHATASE: 379.67 u/L
  ASPARTATE AMINOTRANSFERASE: 91.33 u/L
  BLOOD UREA NITROGEN: 11.33 mg/dL
  CARBON DIOXIDE: 30.33 mmol/L
  CHLORIDE: 103.33 MEQ/L
  CHOLESTEROL: 80.33 mg/dL
  CREATINE PHOSPHOKINASE: 195.67 u/L
  CREATININE: 0.12 mg/dL
  GLUCOSE: 156 mg/dL
  LACTATE DEHYDROGENASE: 80 u/L
  LIPASE: 9.67 u/L
  PHOSPHORUS: 11.1 mg/dL
  POTASSIUM: 6.21 MEQ/L
  SODIUM: 149.03 MEQ/L
  TOTAL BILIRUBIN: 0.1 mg/dL
  TOTAL PROTEIN: 5.43 G/DL
  URIC ACID: 0.7 mg/dL

Reference: ChEMBL document CHEMBL3885881, “DrugMatrix”
